Assay results reported in BindingDB's records for doi:10.1016/j.bmcl.2008.03.029 (Gifu University, 2008).

Assay: Inhibition of human recombinant SAHH at 1000 uM

Question: For `Nc1ncnc2c1ncn2[C@@H]1CC[C@@H](O)[C@H]1O` [(1R,2S,3R)-3-(6-amino-9H-purin-9-yl)cyclopentane-1,2-diol], which IC50 is on record?
Answer: 18 µM
